{
  "source": "patent EP0934745B1",
  "about": "“Use of androsterone derivatives for inhibiting DNA binding of ap-1 and airway smooth muscle proliferation” (CHARLOTTE-MECKLENBURG HOSPITAL doing business as Carolinas …, priority 1998, dated 1999)",
  "key": {"[1]": {"test_system": "guinea pig main bronchi", "assay": "Bronchial smooth muscle contraction in vitro (isolated bronchial rings, isometric tension)", "experimental": "Effect on bronchial smooth muscle contraction in vitro. To study the effect of DHEA on bronchial smooth muscle in vitro, male Hartley guinea-pigs (Charles River Laboratories, Inc., Wilmington, MA) were anaesthetized with sodium pentobarbital (pentobarbital sodium (Abbott Laboratories) (200 mg/kg intraperitoneally). Then trachea and lungs were quickly removed and immersed in oxygenated Krebs-Henseleit solution (K-H) containing (mM) : 115 NaCl, 25 NaHCO3, 1.38 NaH2PO4, 2.5 KCl, 2.46 MgSO4, 1.9 CaCl2, and 5.56 dextrose, aerated with 95% O2 and 5% CO2.\nThe main bronchi were dissected free of loose connective tissue, under a stereo-microscope (Olympus SZH10), and bronchial rings were obtained and mounted in double jacketed organ baths filled with K-H at 37°C and continuously aerated with a 95% O2 and 5% CO2 gas mixture, which produced a pH of 7.4. The bronchial rings were connected to force displacement transducers (Grass FTO3) for continuous recording of isometric tension on paper polygraph (Gould RS3800) and allowed to equilibrate for 90 minutes. After the equilibration period 1mM acetylcholine was administered and the response monitored.\nBronchial rings were partially contracted with 3·10^-2 M KCl or 10^-5 M acetylcholine (ACh) , then the effect of DHEA was studies by increasing cumulatively its concentration at log intervals from 10^-3 to 10^-4 M and measuring the changes produced in active tension.\nA concentration of 3 x 10^-2 M KCl was chosen on the basis of preliminary experiments, in which from concentration-response curves to KCl (10^-2 - 10^-1 M) it was determined that the concentration of KCl eliciting 50% of the maximum response (KCl-EC50) in the experimental set up. […] Similarly, 10^-5 M acetylcholine (ACh) was chosen as the concentration of ACh eliciting 50% of the maximum response.\nSince DHEA was dissolved in dimethyl sulfoxide (DMSO), four additional rings were contracted with 3 x 10^-2 M KCl (n=5) or 10^-5 M ACh (n=5) to determine whether this vehicle produced any alteration of the active force. […] The maximum final concentration of DMSO in the organ bath was 0.15%.\nThree of the strips used to study DHEA were rinsed with fresh K-H at the end of the experiment, treated with 1 mM acetylcholine, and the response monitored.\nIn a second set of experiments either a single dose of 10^-5 M ACh was administered or a concentration-response curve to ACh was performed in the presence or absence of 10^-4 M DHEA (administered 15 minutes before ACh). The single dose of ACh was used to measure the rate of tension development, while the concentration-response study was used to evaluate whether DHEA affected sensitivity to ACh."}, "[2]": {"test_system": "BEAS-2B cells", "assay": "Interleukin-8 secretion by cultured human respiratory epithelium (ELISA)", "type": "cell-based", "conditions": "1 hr pretreatment", "procedure": "J. Physiol. […] J. Physiol. […] Statistical Analysis. […] Significance was assumed at p < 0.05.\nAfter 24 hours (for TNF stimulated cells) or 6 hours (for ROFA stimulated cells) media was collected and centrifuged to remove debris. […] Results are means ± standard errors of 4-6 experiments per treatment group. DMSO vehicle, as an antioxidant, reduces IL-8 secretion (a known effect) but BrEA inhibits much more profoundly."}, "[3]": {"test_system": "c-fos", "assay": "Expression of c-fos protein (immunoblot) and mRNA (RT-PCR) after FBS stimulation", "type": "cell-based, rat", "conditions": "pretreated 2 hours with 10 µM (Figures 7A-7C)", "procedure": "To determine if 16α-BrEA impaired expression of early response genes important for cellular proliferation, confluent 75-cm^2 Petri dishes of airway smooth muscle cells were growth arrested by incubation for 24 hours in DMEM with 0.5% FBS. Monolayers were pretreated 2 hours with 10 µM 16α-BrEA or DMSO vehicle, and stimulated by exposure to DMEM with 10% FBS for 30 minutes. Cells were then lysed and c-fos mRNA was measured by the reverse transcriptase-polymerase chain reaction, as described below. To study whether levels of c-fos protein were affected, confluent monolayers on 6-well plates were growth arrested for 24 hours in DMEM with 0.5% FBS. Cells were then pretreated 2 hours with 16α-BrEA or DMSO vehicle and stimulated with 10% FBS in DMEM for 15, 30 and 60 minutes. Cells were then lysed and c-fos protein was assayed by immunoblotting as described below.\nFor measurement of c-fos protein, monolayers were placed on ice, washed twice with cold DPBS, scraped into 0.5 ml boiling buffer (10% [vol/vol] glycerol and 2% [wt/vol] sodium dodecyl sulfate [SDS] in 83 mM Tris, pH 6.8) and sonicated. Aliquots were removed for protein determination, bromophenol blue and β-mercaptoethanol were added and lysates were boiled and stored as outlined above. […]"}},
  "data": [
    {"molecule": "C[C@]12CC[C@H](O)CC1=CC[C@@H]1[C@@H]2CC[C@]2(C)C(=O)CC[C@@H]12", "note": "[DHEA, dehydroepiandrosterone]", "values": [
      {"measurement": "rate of tension development in response to 10^-5 ACh", "setting": "[1]; 10^-4 M DHEA administered 15 minutes before ACh, 2.27±0.82 without DHEA", "result": "1.85±0.85"},
      {"measurement": "relaxation of the ACh-induced contraction", "setting": "[1]; 10^-4 M DHEA, bronchi partially contracted with 10^-5 M ACh, n=5", "result": "37.98±4.76", "unit": "%"},
      {"measurement": "EC50", "setting": "[1]; Cavia porcellus, read-out: concentration of DHEA which produced 50% relaxation of the KCl-induced contraction", "result": 21.6, "unit": "µM"},
      {"measurement": "relaxation of the KCl-induced contraction", "setting": "[1]; maximum concentration of DHEA, bronchi partially contracted with 3 x 10^-2 M KCl, after subtraction of the reduction of force due to time-vehicle, n=6", "result": "76.28±6.96", "unit": "%"},
      {"measurement": "smooth muscle functionality (response to 1 mM acetylcholine after rinsing)", "setting": "[1]; three strips rinsed with fresh K-H at the end of the DHEA experiment", "result": "not altered"}
    ]},
    {"molecule": "C[C@]12CC[C@H](O)C[C@@H]1CC[C@@H]1[C@@H]2CC[C@]2(C)C(=O)[C@H](Br)C[C@@H]12", "note": "[16α-BrEA, 16α-bromoepiandrosterone]", "values": [
      {"measurement": "IL-8", "setting": "[2]; ROFA Stimulated BEAS Cells (ROFA 50 µg/ml, 6 hr), 25 µM, ROFA + DMSO 410 ± 18", "result": "123 ± 5", "unit": "pg/mL"},
      {"measurement": "IL-8", "setting": "[2]; TNF Stimulated BEAS Cells (TNFα 40 ng/ml, 24 hr), 2 µM, TNF + DMSO 93 ± 14", "result": "104 ± 31", "unit": "pg/mL"},
      {"measurement": "IL-8", "setting": "[2]; TNF Stimulated BEAS Cells (TNFα 40 ng/ml, 24 hr), 10 µM, TNF + DMSO 93 ± 14", "result": "52 ± 18", "unit": "pg/mL"},
      {"measurement": "IL-8", "setting": "[2]; TNF Stimulated BEAS Cells (TNFα 40 ng/ml, 24 hr), 50 µM, TNF + DMSO 93 ± 14", "result": "27 ± 2", "unit": "pg/mL"},
      {"measurement": "stimulation of c-fos protein or mRNA in response to 10% FBS", "setting": "[3]", "result": "did not reduce"}
    ]}
  ]
}
